Where two headings read alike, the source gives them in different places.

One assay deals with T1, ALK (Homo sapiens, UniProt Q9UM73).
T1 construct: host or cells: baculovirus expression system
In words: ALK Kinase Assay (ELISA/TRF, PLC-γ substrate). The class given is biochemical. Particulars: read-out: ALK Potency. The method, boiled down:
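IC50 values derive from percent inhibition plotted against log10 compound concentration and fitted to a variable-slope sigmoidal equation. The underlying reaction used 30 ng/ml ALK acting on immobilized PLC-γ (10 μg/mL in TBS) at 37° C for 15 minutes, read with Eu-N1 PT66 antibody.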
Background: ELISA stands for enzyme-linked immunosorbent assay.

For a further assay, the target named is T2, JAK2 (Homo sapiens, UniProt O60674).
T2 construct: host or cells: baculovirus expression system
Briefly: Recombinant Human JAK2 Kinase Assay (TRF). Conditions: read-out: JAK2 Potency. It counts as biochemical. In a few lines:
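Baculovirus-expressed JAK2 (15 ng/ml) phosphorylated a biotinylated 15-mer peptide captured on Neutravidin, in 20 mM HEPES pH 7.2, 0.2 μM ATP, 1 mM MnCl2, 0.1% BSA, 2.5% DMSO final, 20 min at room temperature. Phosphoproduct detected by time-resolved fluorescence with Eu-N1-labelled PY100 antibody.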

The mark [1] stands for this setting: ALK kinase inhibition, 1 μM ATP.
The mark [2] stands for this setting: JAK2 kinase inhibition, 0.2 μM ATP.

T1 sequence (Q9UM73 19-1620): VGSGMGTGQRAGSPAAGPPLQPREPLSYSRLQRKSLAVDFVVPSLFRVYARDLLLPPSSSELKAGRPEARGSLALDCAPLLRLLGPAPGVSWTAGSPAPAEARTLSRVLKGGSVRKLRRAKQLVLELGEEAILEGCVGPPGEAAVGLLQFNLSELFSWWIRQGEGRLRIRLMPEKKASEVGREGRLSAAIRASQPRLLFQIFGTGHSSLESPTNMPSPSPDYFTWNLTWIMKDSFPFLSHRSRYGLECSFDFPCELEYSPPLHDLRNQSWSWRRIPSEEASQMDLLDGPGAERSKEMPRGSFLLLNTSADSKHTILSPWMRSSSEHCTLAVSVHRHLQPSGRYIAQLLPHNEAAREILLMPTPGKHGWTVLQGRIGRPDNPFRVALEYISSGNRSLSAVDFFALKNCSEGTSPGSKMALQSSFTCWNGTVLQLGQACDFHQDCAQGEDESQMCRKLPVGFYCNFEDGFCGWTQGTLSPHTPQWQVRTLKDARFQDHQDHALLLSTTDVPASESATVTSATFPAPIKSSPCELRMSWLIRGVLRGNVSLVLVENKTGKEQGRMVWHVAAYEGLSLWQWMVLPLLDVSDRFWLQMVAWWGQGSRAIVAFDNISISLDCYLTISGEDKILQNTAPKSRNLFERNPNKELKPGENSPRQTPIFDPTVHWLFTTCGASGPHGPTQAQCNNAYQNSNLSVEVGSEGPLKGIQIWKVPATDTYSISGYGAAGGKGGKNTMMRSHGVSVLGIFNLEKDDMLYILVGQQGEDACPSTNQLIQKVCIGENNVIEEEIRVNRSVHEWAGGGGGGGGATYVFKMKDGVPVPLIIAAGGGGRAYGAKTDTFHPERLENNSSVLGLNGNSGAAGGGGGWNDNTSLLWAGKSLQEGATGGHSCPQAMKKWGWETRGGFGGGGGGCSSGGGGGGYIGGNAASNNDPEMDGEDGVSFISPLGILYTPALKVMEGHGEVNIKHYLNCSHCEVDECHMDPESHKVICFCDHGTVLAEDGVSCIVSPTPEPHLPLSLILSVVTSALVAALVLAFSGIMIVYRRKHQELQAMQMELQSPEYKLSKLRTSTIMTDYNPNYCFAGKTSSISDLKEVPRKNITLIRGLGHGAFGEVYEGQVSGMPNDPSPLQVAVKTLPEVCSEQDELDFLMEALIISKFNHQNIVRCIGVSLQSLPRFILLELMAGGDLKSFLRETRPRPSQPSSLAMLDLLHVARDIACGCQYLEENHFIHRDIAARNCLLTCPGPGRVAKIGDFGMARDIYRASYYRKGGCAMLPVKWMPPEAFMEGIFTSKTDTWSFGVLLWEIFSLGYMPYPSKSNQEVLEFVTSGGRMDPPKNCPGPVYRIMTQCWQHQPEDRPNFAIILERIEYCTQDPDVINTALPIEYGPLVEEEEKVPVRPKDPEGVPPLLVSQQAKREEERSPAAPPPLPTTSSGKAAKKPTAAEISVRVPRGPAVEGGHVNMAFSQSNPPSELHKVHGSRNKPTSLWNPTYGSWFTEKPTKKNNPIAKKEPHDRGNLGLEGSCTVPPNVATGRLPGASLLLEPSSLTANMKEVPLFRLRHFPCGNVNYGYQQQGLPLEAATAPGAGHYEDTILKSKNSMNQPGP
T2 sequence (O60674 whole entry): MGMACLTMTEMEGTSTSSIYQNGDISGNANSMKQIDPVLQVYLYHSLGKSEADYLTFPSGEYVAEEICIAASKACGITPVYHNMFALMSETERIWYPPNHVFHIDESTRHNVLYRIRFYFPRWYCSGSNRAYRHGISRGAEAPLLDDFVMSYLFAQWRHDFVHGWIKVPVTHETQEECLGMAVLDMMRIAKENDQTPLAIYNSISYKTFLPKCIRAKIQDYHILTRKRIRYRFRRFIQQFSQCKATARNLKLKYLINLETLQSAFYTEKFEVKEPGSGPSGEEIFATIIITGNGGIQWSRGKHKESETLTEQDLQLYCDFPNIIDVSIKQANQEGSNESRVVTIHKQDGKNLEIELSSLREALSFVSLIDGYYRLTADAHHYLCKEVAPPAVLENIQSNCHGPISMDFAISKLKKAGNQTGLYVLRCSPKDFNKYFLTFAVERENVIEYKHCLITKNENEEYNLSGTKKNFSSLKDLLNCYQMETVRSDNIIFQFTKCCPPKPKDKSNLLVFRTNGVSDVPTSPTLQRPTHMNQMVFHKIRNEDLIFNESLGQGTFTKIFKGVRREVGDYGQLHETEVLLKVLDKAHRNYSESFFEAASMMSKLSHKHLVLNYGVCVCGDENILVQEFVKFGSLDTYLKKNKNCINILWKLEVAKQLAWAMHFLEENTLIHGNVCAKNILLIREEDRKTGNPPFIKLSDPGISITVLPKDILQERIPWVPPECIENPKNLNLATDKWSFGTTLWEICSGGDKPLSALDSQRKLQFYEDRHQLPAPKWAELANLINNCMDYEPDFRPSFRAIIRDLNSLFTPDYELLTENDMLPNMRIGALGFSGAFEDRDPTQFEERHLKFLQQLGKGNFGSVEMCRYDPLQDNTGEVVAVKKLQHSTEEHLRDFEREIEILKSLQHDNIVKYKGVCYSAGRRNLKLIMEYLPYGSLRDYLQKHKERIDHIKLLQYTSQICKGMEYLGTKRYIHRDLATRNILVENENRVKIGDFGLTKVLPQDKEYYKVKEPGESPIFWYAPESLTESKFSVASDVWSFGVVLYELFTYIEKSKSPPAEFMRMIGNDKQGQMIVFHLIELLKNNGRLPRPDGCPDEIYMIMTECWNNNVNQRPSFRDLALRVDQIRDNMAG

On to `COc1cc(N2CCC[C@@H](CN3CCN(C)CC3)C2)ccc1Nc1ncc2ccc(-c3ccccc3N(C)S(C)(=O)=O)n2n1` [Example 469, N-[2-(2-{2-Methoxy-4-[(S)-3-(4-methyl-piperazin-1-ylmethyl)-piperidin-1-yl]-phenylamino}-pyrrolo[2,1-f][1,2,4]triazin-7-yl)-phenyl]-N-methyl-methanesulfonamide], for which the IC50 at ALK (ALK Kinase Inhibition) is less than 100 nM; at JAK2 (JAK2 Kinase Inhibition) it was 100 to 1000 nM.
Regarding `COc1cc(N2CCC[C@@H](CN3CCN(C)CC3)C2)ccc1Nc1ncc2ccc(-c3ccccc3OC)n2n1` [Example 470, {2-Methoxy-4-[(S)-3-(4-methyl-piperazin-1-ylmethyl)-piperidin-1-yl]-phenyl}-[7-(2-methoxy-phenyl)-pyrrolo[2,1-f][1,2,4]triazin-2-yl]-amine], the IC50 at ALK (setting [1]) was less than 100 nM; at JAK2 (setting [2]), 100 to 1000 nM.
For `COc1cc(N(C)C(=O)CN2CCN(C)CC2)ccc1Nc1ncc2ccc(-c3ccccc3N(C)S(C)(=O)=O)n2n1` [Example 471, N-(4-{7-[2-(Methanesulfonyl-methyl-amino)-phenyl]-pyrrolo[2,1-f][1,2,4]triazin-2-ylamino}-3-methoxy-phenyl)-N-methyl-2-(4-methyl-piperazin-1-yl)-acetamide], in that order: 100 to 1000 nM and 1000 to 10000 nM.
With `COc1cc(N(C)C(=O)CN2CCOCC2)ccc1Nc1ncc2ccc(-c3ccccc3OC)n2n1` [Example 472, N-{3-Methoxy-4-[7-(2-methoxy-phenyl)-pyrrolo[2,1-f][1,2,4]triazin-2-ylamino]-phenyl}-N-methyl-2-morpholin-4-yl-acetamide], the IC50 is less than 100 nM on ALK (setting [1]) and 100 to 1000 nM on JAK2 (setting [2]).
For `COc1cc(N(C)C(=O)CN2CCOCC2)ccc1Nc1ncc2ccc(-c3ccccc3N(C)S(C)(=O)=O)n2n1` [Example 473, N-(4-{7-[2-(Methanesulfonyl-methyl-amino)-phenyl]-pyrrolo[2,1-f][1,2,4]triazin-2-ylamino}-3-methoxy-phenyl)-N-methyl-2-morpholin-4-yl-acetamide] the same measures were less than 100 nM and 1000 to 10000 nM.
For `COc1cc(N(C)C(=O)CN2CCN(C)CC2)ccc1Nc1ncc2ccc(-c3ccccc3OC)n2n1` [Example 474, N-{3-Methoxy-4-[7-(2-methoxy-phenyl)-pyrrolo[2,1-f][1,2,4]triazin-2-ylamino]-phenyl}-N-methyl-2-(4-methyl-piperazin-1-yl)-acetamide] the same measures were less than 100 nM and 1000 to 10000 nM.
Consider `COc1cc(N2CCC(N(C)C)CC2)ccc1Nc1ncc2ccc(-c3ccccc3N(C)S(C)(=O)=O)n2n1` [Example 475, N-(2-{2-[4-(4-Dimethylamino-piperidin-1-yl)-2-methoxy-phenylamino]-pyrrolo[2,1-f][1,2,4]triazin-7-yl}-phenyl)-N-methyl-methanesulfonamide], for which the results for the IC50 at ALK (setting [1]) and at JAK2 (setting [2]) were less than 100 nM and 100 to 1000 nM, respectively.
For `COc1cc(N2CCC(N(C)C)CC2)ccc1Nc1ncc2ccc(-c3ccccc3OC)n2n1` [Example 476, [4-(4-Dimethylamino-piperidin-1-yl)-2-methoxy-phenyl]-[7-(2-methoxy-phenyl)-pyrrolo[2,1-f][1,2,4]triazin-2-yl]-amine], in that order: less than 100 nM and less than 100 nM.
In the case of `COc1cc(N2CCC(N(C)C)CC2)ccc1Nc1ncc2ccc(-c3ccc(S(C)(=O)=O)cc3)n2n1` [Example 477, [4-(4-Dimethylamino-piperidin-1-yl)-2-methoxy-phenyl]-[7-(4-methanesulfonyl-phenyl)-pyrrolo[2,1-f][1,2,4]triazin-2-yl]-amine], the IC50 at ALK (setting [1]) and at JAK2 (setting [2]) was less than 100 nM in each case.
Turning to `COc1cc(N2CCC(N3CC[C@@H](O)C3)CC2)ccc1Nc1ncc2ccc(-c3ccccc3N(C)S(C)(=O)=O)n2n1` [Example 478, N-[2-(2-{4-[4-((R)-3-Hydroxy-pyrrolidin-1-yl)-piperidin-1-yl]-2-methoxy-phenylamino}-pyrrolo[2,1-f][1,2,4]triazin-7-yl)-phenyl]-N-methyl-methanesulfonamide], the IC50 on ALK (setting [1]) and at JAK2 (setting [2]) was less than 100 nM each time.
On to `COc1cc(N2CCC(N3CC[C@@H](O)C3)CC2)ccc1Nc1ncc2ccc(-c3ccccc3OC)n2n1` [Example 479, (R)-1-(1-{3-Methoxy-4-[7-(2-methoxy-phenyl)-pyrrolo[2,1-f][1,2,4]triazin-2-ylamino]-phenyl}-piperidin-4-yl)-pyrrolidin-3-ol], for which the IC50 at ALK (setting [1]) and on JAK2 (setting [2]) was less than 100 nM in each case.
For `COc1cc(N2CCC(N3CCCC3)CC2)ccc1Nc1ncc2ccc(-c3ccccc3N(C)S(C)(=O)=O)n2n1` [Example 480, N-(2-{2-[2-Methoxy-4-(4-pyrrolidin-1-yl-piperidin-1-yl)-phenylamino]-pyrrolo[2,1-f][1,2,4]triazin-7-yl}-phenyl)-N-methyl-methanesulfonamide], the figures for the IC50 on ALK (setting [1]) and on JAK2 (setting [2]) were less than 100 nM and 1000 to 10000 nM, respectively.
For `COc1cc(N2CCC(N3CCCC3)CC2)ccc1Nc1ncc2ccc(-c3ccccc3OC)n2n1` [Example 481, [7-(2-Methoxy-phenyl)-pyrrolo[2,1-f][1,2,4]triazin-2-yl]-[2-methoxy-4-(4-pyrrolidin-1-yl-piperidin-1-yl)-phenyl]-amine] the same measures were less than 100 nM and 100 to 1000 nM.
As to `COc1cc(N2CCC3(CC2)OCCO3)ccc1Nc1ncc2ccc(-c3ccccc3OC)n2n1` [Example 482, [4-(1,4-Dioxa-8-aza-spiro[4.5]dec-8-yl)-2-methoxy-phenyl]-[7-(2-methoxy-phenyl)-pyrrolo[2,1-f][1,2,4]triazin-2-yl]-amine], the IC50 at ALK (setting [1]) and on JAK2 (setting [2]) was 100 to 1000 nM in each case.
In the case of `COc1cc(N2CCC(N3CC[C@H](O)C3)CC2)ccc1Nc1ncc2ccc(-c3ccccc3OC)n2n1` [Example 483, (S)-1-(1-{3-Methoxy-4-[7-(2-methoxy-phenyl)-pyrrolo[2,1-f][1,2,4]triazin-2-ylamino]-phenyl}-piperidin-4-yl)-pyrrolidin-3-ol], the results for the IC50 at ALK (setting [1]) and on JAK2 (setting [2]) were less than 100 nM and 100 to 1000 nM, respectively.
For `COc1cc(Cl)ccc1-c1ccc2cnc(Nc3ccc(N4CCC(C(=O)N5CCN(C)CC5)CC4)cc3)nn12` [Example 484, (1-{4-[7-(4-Chloro-2-methoxy-phenyl)-pyrrolo[2,1-f][1,2,4]triazin-2-ylamino]-phenyl}-piperidin-4-yl)-(4-methyl-piperazin-1-yl)-methanone], in that order: less than 100 nM and less than 100 nM.
In the case of `CN1CCN(C(=O)C2CCN(c3ccc(Nc4ncc5ccc(-c6ccc(Cl)cc6O)n5n4)cc3)CC2)CC1` [Example 485, (1-{4-[7-(4-Chloro-2-hydroxy-phenyl)-pyrrolo[2,1-f][1,2,4]triazin-2-ylamino]-phenyl}-piperidin-4-yl)-(4-methyl-piperazin-1-yl)-methanone], the figures for the IC50 on ALK (setting [1]) and on JAK2 (setting [2]) were 100 to 1000 nM and less than 100 nM, respectively.
For `COc1cc(N2CCC(N3CCOCC3)CC2)ccc1Nc1ncc2ccc(-c3ccc(Cl)cc3OC)n2n1` [Example 486, [7-(4-Chloro-2-methoxy-phenyl)-pyrrolo[2,1-f][1,2,4]triazin-2-yl]-[2-methoxy-4-(4-morpholin-4-yl-piperidin-1-yl)-phenyl]-amine] the same measures were less than 100 nM and less than 100 nM.

For the origin of these results see patent US8471005B2 (Cephalon, Inc., priority 2008, dated 2013).
